Active and inactive are the calls of the source.
Key:
Focal adhesion kinase 1 = Focal adhesion kinase 1 (Homo sapiens, UniProt Q05397); format: functional;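 also: measured as one member of a kinome panel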
[1] = target: Leukocyte tyrosine kinase receptor (Homo sapiens, UniProt P29376); assay: Navigating the Kinome. Panel member name: LTK; format: functional
[2] = target: BDNF/NT-3 growth factors receptor (Homo sapiens, UniProt Q16620); format: functional;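 also: NTRK2 measured as one member of a broad kinome-wide kinase profiling panel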
[3] = target: Proto-oncogene tyrosine-protein kinase receptor Ret (Homo sapiens, UniProt P07949); format: functional;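 also: measured within a kinome-wide profiling panel, RET as the panel member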
[4] = target: Dual specificity tyrosine-phosphorylation-regulated kinase 1B (Homo sapiens, UniProt Q9Y463); assay: Navigating the Kinome. Panel member name: DYRK1B; format: functional
[5] = target: Tyrosine-protein kinase Lck (Homo sapiens, UniProt P06239); format: functional;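 also: lck was assayed as one member of a kinase panel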
[6] = target: Glycogen synthase kinase-3 beta (Homo sapiens, UniProt P49841); format: functional;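 also: value comes from a broad kinome profiling panel, with GSK3B as the panel member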
[7] = target: Glycogen synthase kinase-3 alpha (Homo sapiens, UniProt P49840); format: functional;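 also: GSK3A result taken from a broad kinome-wide kinase panel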
[8] = target: Dual specificity mitogen-activated protein kinase kinase 1 (Homo sapiens, UniProt Q02750); assay: Navigating the Kinome. Panel member name: MAP2K1; format: functional
[9] = target: Cyclin-dependent kinase 9 (Homo sapiens, UniProt P50750); format: functional;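 also: value from the CDK9 entry of a kinome-spanning kinase panel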
[10] = target: Vascular endothelial growth factor receptor 1 (Homo sapiens, UniProt P17948); format: functional;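 also: measured within a kinome-wide profiling panel, FLT1 as the panel member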
[11] = target: Macrophage-stimulating protein receptor (Homo sapiens, UniProt Q04912); assay: Navigating the Kinome. Panel member name: MST1R; format: functional
[12] = target: Hepatocyte growth factor receptor (Homo sapiens, UniProt P08581); format: functional;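 also: kinase panel profiling across the kinome, with MET as the panel member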
[13] = target: G protein-coupled receptor kinase 5 (Homo sapiens, UniProt P34947); assay: Navigating the Kinome. Panel member name: GPRK5; format: functional
[14] = target: Dual specificity protein kinase CLK2 (Homo sapiens, UniProt P49760); format: functional
[15] = target: Tyrosine-protein kinase JAK2 (Homo sapiens, UniProt O60674); format: functional;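 also: JAK2 tested as one member of a kinase panel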
[16] = target: Tyrosine-protein kinase BTK (Homo sapiens, UniProt Q06187); format: functional
Activated CDC42 kinase 1 = Activated CDC42 kinase 1 (Homo sapiens, UniProt Q07912); assay: Navigating the Kinome. Panel member name: ACK1; format: functional
[17] = target: 5'-AMP-activated protein kinase catalytic subunit alpha-1 (Homo sapiens, UniProt Q13131); format: functional
[18] = target: Mitogen-activated protein kinase 9 (Homo sapiens, UniProt P45984); format: functional;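 also: value from a kinome panel profiling assay, MAPK9 panel entry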
[19] = target: Tyrosine-protein kinase receptor TYRO3 (Homo sapiens, UniProt Q06418); format: functional;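 also: TYRO3 value obtained as one member of a kinome-wide profiling panel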
[20] = target: cAMP-dependent protein kinase catalytic subunit PRKX (Homo sapiens, UniProt P51817); format: functional
[21] = target: Dual specificity protein kinase CLK4 (Homo sapiens, UniProt Q9HAZ1); format: functional
[22] = target: Protein kinase C theta type (Homo sapiens, UniProt Q04759); assay: Navigating the Kinome. Panel member name: PRKCQ; format: functional
[23] = target: Cyclin-dependent kinase 7 (Homo sapiens, UniProt P50613); format: functional;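 also: value comes from a kinome-wide kinase profiling panel in which CDK7 is one member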
[24] = target: Casein kinase I isoform alpha (Homo sapiens, UniProt P48729); format: functional
[25] = target: Tyrosine-protein kinase Fyn (Homo sapiens, UniProt P06241); format: functional
[26] = target: Dual specificity tyrosine-phosphorylation-regulated kinase 1A (Homo sapiens, UniProt Q13627); format: functional;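 also: measured against DYRK1A as one member of a broad kinome profiling panel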
[27] = target: Ribosomal protein S6 kinase alpha-3 (Homo sapiens, UniProt P51812); format: functional;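 also: measured within a kinome-wide profiling panel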
Cytochrome P450 1A2 = target: T1, Cytochrome P450 1A2 (Homo sapiens, UniProt P05177);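 also: PubChem cytochrome P450 panel assay, CYP1A2 panel member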
T1 sequence (P05177 whole entry): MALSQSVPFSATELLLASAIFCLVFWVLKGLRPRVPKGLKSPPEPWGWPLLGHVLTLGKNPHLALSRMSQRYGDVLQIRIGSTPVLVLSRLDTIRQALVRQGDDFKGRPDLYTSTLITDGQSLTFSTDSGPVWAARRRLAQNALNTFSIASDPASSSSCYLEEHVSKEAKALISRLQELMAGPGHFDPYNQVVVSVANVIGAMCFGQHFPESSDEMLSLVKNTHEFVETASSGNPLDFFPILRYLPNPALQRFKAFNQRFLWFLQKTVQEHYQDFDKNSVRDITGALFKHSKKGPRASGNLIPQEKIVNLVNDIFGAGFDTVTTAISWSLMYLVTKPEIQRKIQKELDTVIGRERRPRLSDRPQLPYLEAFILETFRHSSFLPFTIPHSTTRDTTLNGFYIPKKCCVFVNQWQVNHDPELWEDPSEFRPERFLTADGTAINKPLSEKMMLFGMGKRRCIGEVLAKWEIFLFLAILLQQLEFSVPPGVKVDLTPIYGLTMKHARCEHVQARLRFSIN

[28] = target: High affinity nerve growth factor receptor (Homo sapiens, UniProt P04629); format: functional;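 also: NTRK1 tested as one member of a kinome-wide profiling panel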
[29] = target: Serine/threonine-protein kinase TBK1 (Homo sapiens, UniProt Q9UHD2); assay: Navigating the Kinome. Panel member name: TBK1; format: functional
[30] = target: cAMP-dependent protein kinase catalytic subunit alpha (Homo sapiens, UniProt P17612); format: functional
[31] = target: Serine/threonine-protein kinase pim-1 (Homo sapiens, UniProt P11309); format: functional
[32] = target: Inhibitor of nuclear factor kappa-B kinase subunit epsilon (Homo sapiens, UniProt Q14164); assay: Navigating the Kinome. Panel member name: IKBKE; format: functional
Aurora kinase A = Aurora kinase A (Homo sapiens, UniProt O14965); format: functional;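 also: value from the Navigating the Kinome kinase panel profiling, panel entry STK6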
[33] = target: Macrophage colony-stimulating factor 1 receptor (Homo sapiens, UniProt P07333); format: functional;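 also: value comes from the Navigating the Kinome screening panel, CSF1R member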
[34] = target: Mitogen-activated protein kinase kinase kinase kinase 4 (Homo sapiens, UniProt O95819); format: functional
[35] = target: Mitogen-activated protein kinase 8 (Homo sapiens, UniProt P45983); format: functional;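 also: value comes from one member of a kinome-wide kinase profiling panel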
[36] = target: Serine/threonine-protein kinase TAO1 (Homo sapiens, UniProt Q7L7X3); format: functional

Chain of Serine/threonine-protein kinase TBK1 (Q9UHD2 whole entry): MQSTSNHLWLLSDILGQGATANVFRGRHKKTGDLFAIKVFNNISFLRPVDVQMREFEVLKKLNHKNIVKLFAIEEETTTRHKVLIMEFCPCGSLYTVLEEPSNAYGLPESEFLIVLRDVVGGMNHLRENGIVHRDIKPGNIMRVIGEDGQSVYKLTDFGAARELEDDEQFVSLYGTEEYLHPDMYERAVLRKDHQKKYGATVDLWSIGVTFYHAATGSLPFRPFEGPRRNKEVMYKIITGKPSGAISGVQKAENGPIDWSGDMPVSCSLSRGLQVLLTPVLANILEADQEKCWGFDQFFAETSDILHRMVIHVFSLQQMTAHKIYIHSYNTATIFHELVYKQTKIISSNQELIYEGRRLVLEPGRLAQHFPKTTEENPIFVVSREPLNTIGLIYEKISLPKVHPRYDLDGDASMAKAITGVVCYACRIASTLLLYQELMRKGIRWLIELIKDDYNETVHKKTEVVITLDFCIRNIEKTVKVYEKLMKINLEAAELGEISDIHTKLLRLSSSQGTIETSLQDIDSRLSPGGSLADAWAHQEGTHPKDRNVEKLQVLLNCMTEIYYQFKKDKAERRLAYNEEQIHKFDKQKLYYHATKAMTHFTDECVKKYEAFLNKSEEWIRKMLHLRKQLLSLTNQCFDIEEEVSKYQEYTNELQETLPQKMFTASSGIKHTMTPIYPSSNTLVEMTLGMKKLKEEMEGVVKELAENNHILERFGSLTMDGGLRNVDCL
Chain of Activated CDC42 kinase 1 (Q07912 whole entry): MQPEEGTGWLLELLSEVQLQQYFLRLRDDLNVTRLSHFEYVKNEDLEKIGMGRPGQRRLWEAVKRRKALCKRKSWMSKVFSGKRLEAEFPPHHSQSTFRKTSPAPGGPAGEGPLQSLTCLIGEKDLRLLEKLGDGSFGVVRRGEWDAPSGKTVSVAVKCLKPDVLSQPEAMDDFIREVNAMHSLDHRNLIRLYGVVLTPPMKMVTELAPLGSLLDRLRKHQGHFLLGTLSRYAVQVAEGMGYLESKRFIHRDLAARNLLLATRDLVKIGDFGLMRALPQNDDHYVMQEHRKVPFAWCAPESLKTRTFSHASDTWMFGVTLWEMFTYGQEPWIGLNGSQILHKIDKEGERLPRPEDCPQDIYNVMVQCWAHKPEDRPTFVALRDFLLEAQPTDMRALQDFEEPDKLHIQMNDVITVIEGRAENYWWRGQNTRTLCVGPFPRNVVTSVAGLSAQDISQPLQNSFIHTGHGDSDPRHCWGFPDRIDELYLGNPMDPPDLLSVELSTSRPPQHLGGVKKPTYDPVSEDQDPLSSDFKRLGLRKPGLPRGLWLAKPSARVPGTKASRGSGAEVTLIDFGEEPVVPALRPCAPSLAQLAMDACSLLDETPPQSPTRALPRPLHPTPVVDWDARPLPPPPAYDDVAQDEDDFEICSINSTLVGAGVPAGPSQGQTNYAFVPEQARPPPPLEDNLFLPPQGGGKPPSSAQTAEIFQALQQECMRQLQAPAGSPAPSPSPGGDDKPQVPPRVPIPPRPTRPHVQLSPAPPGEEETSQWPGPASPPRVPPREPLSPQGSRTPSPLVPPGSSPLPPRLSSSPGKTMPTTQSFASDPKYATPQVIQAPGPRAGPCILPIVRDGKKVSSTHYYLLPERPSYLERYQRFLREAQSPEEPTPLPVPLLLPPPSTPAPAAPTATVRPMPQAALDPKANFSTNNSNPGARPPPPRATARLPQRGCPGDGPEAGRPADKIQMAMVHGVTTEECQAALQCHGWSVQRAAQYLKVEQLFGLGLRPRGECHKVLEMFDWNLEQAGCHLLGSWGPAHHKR
Chain of Cyclin-dependent kinase 7 (P50613 whole entry, canonical isoform): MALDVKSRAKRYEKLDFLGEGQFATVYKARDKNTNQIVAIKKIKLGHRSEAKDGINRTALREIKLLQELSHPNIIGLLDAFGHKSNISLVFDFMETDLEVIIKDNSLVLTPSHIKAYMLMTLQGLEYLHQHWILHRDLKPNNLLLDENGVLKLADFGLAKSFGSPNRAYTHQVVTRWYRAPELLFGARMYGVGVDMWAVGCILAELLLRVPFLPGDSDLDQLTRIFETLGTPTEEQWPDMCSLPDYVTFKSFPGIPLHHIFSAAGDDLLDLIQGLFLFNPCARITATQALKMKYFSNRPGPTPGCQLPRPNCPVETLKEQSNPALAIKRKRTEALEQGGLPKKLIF
Chain of cAMP-dependent protein kinase catalytic subunit PRKX (P51817 whole entry): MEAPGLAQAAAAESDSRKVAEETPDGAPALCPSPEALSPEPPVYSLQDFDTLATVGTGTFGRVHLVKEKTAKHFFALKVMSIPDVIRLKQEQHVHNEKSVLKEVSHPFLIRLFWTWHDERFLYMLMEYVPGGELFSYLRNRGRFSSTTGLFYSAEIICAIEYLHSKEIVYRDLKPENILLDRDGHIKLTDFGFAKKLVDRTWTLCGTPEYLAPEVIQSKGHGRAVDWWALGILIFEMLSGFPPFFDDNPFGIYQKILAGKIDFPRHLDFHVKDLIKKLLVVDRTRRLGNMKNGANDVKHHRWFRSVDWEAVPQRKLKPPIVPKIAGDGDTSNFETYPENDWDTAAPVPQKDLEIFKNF
Chain of Dual specificity protein kinase CLK2 (P49760 whole entry): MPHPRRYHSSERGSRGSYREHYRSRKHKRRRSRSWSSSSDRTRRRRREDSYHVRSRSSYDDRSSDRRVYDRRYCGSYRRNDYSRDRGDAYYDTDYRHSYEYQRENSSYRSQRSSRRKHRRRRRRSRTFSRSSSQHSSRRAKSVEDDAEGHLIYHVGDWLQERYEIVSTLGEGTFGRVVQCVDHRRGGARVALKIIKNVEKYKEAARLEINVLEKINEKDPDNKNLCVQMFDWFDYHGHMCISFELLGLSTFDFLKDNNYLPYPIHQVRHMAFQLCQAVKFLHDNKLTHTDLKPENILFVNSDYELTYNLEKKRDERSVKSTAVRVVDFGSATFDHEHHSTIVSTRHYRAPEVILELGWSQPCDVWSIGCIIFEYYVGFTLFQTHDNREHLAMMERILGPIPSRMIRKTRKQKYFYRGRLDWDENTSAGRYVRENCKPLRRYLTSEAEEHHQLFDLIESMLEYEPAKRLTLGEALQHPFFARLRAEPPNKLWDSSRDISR
Chain of Macrophage-stimulating protein receptor (Q04912 25-304 limits assumed): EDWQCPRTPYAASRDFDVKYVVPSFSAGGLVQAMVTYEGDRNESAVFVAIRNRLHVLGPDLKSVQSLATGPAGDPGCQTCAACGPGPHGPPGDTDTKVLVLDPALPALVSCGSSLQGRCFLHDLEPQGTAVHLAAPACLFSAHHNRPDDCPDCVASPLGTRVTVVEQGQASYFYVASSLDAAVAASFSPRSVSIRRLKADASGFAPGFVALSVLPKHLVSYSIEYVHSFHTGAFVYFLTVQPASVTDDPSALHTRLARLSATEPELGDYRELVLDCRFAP
Chain of Macrophage-stimulating protein receptor (Q04912 310-1400 limits assumed): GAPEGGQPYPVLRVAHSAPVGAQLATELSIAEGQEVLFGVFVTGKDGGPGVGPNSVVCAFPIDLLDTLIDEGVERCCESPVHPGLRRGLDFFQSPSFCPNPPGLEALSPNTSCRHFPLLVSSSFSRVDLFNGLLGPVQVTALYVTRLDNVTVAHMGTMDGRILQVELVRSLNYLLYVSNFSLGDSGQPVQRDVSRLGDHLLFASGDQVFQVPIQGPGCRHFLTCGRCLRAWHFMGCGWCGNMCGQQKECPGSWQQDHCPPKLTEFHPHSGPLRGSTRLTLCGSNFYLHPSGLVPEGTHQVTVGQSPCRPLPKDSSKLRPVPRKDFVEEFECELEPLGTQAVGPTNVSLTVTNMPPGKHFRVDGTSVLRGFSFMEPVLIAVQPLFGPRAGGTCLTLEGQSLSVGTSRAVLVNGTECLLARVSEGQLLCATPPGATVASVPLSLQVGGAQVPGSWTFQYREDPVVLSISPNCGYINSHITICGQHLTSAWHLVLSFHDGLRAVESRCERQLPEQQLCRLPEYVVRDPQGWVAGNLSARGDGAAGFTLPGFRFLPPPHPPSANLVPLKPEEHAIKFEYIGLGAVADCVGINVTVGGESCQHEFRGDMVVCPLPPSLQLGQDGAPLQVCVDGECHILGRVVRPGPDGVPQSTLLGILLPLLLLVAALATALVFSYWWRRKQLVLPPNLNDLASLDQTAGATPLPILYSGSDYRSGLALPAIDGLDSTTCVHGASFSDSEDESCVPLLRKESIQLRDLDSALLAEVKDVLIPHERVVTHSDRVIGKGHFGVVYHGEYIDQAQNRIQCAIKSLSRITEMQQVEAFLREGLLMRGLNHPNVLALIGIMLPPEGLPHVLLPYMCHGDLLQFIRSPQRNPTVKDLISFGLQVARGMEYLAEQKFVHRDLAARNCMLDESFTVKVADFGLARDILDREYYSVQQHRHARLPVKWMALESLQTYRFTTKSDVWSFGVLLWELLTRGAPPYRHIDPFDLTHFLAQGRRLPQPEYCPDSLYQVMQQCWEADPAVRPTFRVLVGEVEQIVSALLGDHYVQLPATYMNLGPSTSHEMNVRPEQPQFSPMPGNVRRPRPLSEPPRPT
Chain of Glycogen synthase kinase-3 alpha (P49840 whole entry): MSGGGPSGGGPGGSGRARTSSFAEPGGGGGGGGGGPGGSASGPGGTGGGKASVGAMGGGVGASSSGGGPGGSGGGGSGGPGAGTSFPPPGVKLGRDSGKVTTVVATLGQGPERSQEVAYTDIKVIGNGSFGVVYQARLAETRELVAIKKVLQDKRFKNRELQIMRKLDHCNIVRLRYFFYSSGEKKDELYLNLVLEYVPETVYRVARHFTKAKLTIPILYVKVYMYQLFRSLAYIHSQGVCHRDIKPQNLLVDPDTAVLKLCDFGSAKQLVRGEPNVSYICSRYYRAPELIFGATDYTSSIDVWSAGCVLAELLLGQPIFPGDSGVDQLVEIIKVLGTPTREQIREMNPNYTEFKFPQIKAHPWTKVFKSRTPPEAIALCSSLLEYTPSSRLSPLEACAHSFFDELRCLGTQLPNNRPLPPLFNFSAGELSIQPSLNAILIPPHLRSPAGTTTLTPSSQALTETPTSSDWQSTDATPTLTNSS

Question: What does the source list for `NC(=O)c1ccc(-c2nc(-c3ccc4c(c3)OCO4)c(-c3ccccn3)[nH]2)cc1` [SB-431542]?
Answer: Ki (Focal adhesion kinase 1): > 6.31 µM (inactive); Ki [1]: > 2.51 µM (inactive); Ki [2]: > 3.98 µM (inactive); Ki [3]: > 3.16 µM (inactive); Ki [4]: > 2.51 µM (inactive); Ki [5]: > 6.31 µM (inactive); Ki [6]: > 3.98 µM (inactive); Ki [7]: > 3.98 µM (inactive); Ki [8]: > 3.16 µM (inactive); Ki [9]: > 1.58 µM (inactive); Ki [10]: > 3.98 µM (inactive); Ki [11]: > 3.98 µM (inactive); Ki [12]: > 2.51 µM (inactive); Ki [13]: > 3.98 µM (inactive); Ki [14]: > 3.98 µM (inactive); Ki [15]: > 2.51 µM (inactive); Ki [16]: > 6.31 µM (inactive); Ki (Activated CDC42 kinase 1): > 3.98 µM (inactive); Ki [17]: > 3.16 µM (inactive); Ki [18]: > 3.98 µM (inactive); Ki [19]: > 3.16 µM (inactive); Ki [20]: > 3.16 µM (inactive); Ki [21]: > 2.51 µM (inactive); Ki [22]: > 2.51 µM (inactive); Ki [23]: > 3.98 µM (inactive); Ki [24]: 0.1 µM (active); Ki [25]: > 6.31 µM (inactive); Ki [26]: > 2 µM (inactive); Ki [27]: > 3.98 µM (inactive); AC50 (Cytochrome P450 1A2): 15.8 µM (inconclusive); Ki [28]: > 3.16 µM (inactive); Ki [29]: > 3.16 µM (inactive); Ki [30]: > 1.26 µM (inactive); Ki [31]: > 6.31 µM (inactive); Ki [32]: > 3.16 µM (inactive); Ki (Aurora kinase A): > 1.58 µM (inactive); Ki [33]: > 2.51 µM (inactive); Ki [34]: > 5.01 µM (inactive); Ki [35]: > 5.01 µM (inactive); Ki [36]: > 2.51 µM (inactive)
